One test has as its target mu opioid receptor (MOR) (Homo sapiens (Human), UniProt P35372). As to the kind of experiment: Competitive radioligand binding at MOR ([3H] Naloxone).
The target in another test is hMOR (Homo sapiens (Human), UniProt P35372). Put plainly: cAMP accumulation assay (inhibition of forskolin-stimulated cAMP) in CHO-K1 cells stably expressing hMOR. The class given is cell-based. Here is the method: Mu opioid agonist activity for selected compounds was determined by the inhibition of forskolin-stimulated cAMP accumulation following MOR activation in CHO-K1 cells stably expressing the hMOR. […] IC50 values were calculated from […] analysis of the concentration-response curves using Graph Pad Prizm.
Background: Changes in cAMP serve as a functional read-out for many G protein-coupled receptors.

A further test addresses NMDA receptor. As to the kind of experiment: Competitive radioligand binding at NMDA receptor ([3H] MK801), rat forebrain membranes. The following applies: 0.2 nM [3H] MK801, reflects free base activity.
Test [1] concerns rat formalin paw model of persistent pain. As to the kind of experiment: Automated formalin paw test, oral administration. The class given is in vivo. Particulars: at at least one dosage between 10 mg/kg and 300 mg/kg (inclusive), in the presence of 1-aminobenzotriazole. Here is the method:
The in vivo efficacy of selected compounds following oral administration was measured using the rat formalin model of persistent pain. Test compounds were administered 30-60 minutes prior to injection of 5% formalin to the hind-paw of rats and paw movements were measured using the automated Nociception Analyzer (ANA Instrument; University of California, San Diego) for 60 minutes post-formalin. In some experiments, rats were pre-treated 16-22 hours priors to the experiment with the cytochrome-P450 inhibitor, 1-aminobenzotriazole (ABT), to assess the activity of compounds in the absence of significant quantities of metabolites. ED50 values (mg/kg) were calculated from non-linear regression analyses of the cumulative number of flinches in Phase II (10-60 mins) versus dose of test compounds.
In the rat formalin paw model of persistent pain, compounds 83, 113, 114 and 115 (described in Examples 83, 113, 114 and 115, respectively) were tested. In each case, the oral efficacy of the compounds was measured in the presence and absence of the cytochrome CYP-450 inhibitor, 1-aminobenzotriazole.

[2] abbreviates: membranes from CHO-K1 cells expressing MOR, 2 nM [3H] Naloxone, reflects free base activity, read-out: MOR IC50.
Where [3] appears, read: hMOR-expressing CHO-K1 cells, 10 μM forskolin, 60 minute incubation, read-out: MOR cAMP IC50.

Like-named read-outs stand apart in the source and are kept apart here.

For orientation: IC50 means the concentration that inhibits the measured activity by half. In the case of `COCCN1CC[C@]23CC(=O)CC[C@H]2[C@H]1Cc1ccc(O)cc13` [Compound 3, 3-hydroxy-17-(2-methoxyethyl)morphinan-6-one], the IC50 on mu opioid receptor (MOR) and at hMOR was 0.1 to 10 nM throughout.
Regarding `COCCOc1ccc2c(c1)[C@]13CCN(C)[C@H](C2)[C@@H]1CCC(=O)C3` [Compound 7, 3-(2-methoxyethoxy)-17-methylmorphinan-6-one], the 50% inhibitory concentration (IC50) was 100 to 1000 nM on mu opioid receptor (MOR), > 10000 nM on NMDA receptor and 100 to 1000 nM against hMOR.
`COCCOCCN1CC[C@]23CCCC[C@H]2[C@H]1Cc1ccc(OC)cc13` [Compound 12, 3-methoxy-17-[2-(2-methoxyethoxy)ethyl]-morphinan]: the concentration for half-maximal inhibition (IC50) at mu opioid receptor (MOR) (setting [2]) is > 1000 nM; on NMDA receptor it was > 10000 nM; on hMOR (setting [3]), > 1000 nM.
`COCCOCCN1CC[C@]23CCCC[C@H]2[C@H]1Cc1ccc(O)cc13` [Compound 15, 17-[2-(2-methoxyethoxy)ethyl]morphinan-3-ol]: the figures for the IC50 on mu opioid receptor (MOR), on NMDA receptor and on hMOR were 10 to 100 nM, > 10000 nM and 10 to 100 nM, respectively.
As for `COCCOCCOCCN1CC[C@]23CCCC[C@H]2[C@H]1Cc1ccc(O)cc13` [Compound 16, 17-{2-{2-(2-methoxyethoxy)ethoxy]ethyl}-morphinan-3-ol], the IC50 on mu opioid receptor (MOR) (setting [2]) and on hMOR (setting [3]) was > 1000 nM each time.
On to `COCCNC(=O)Oc1ccc2c(c1)[C@@]13CCCC[C@H]1[C@@H](C2)N(C)CC3` [Compound 18, 17-methylmorphinan-3-yl (2-methoxyethyl)carbamate], for which the values for the IC50 at mu opioid receptor (MOR), on NMDA receptor and on hMOR were 100 to 1000 nM, 1000 to 10000 nM and 100 to 1000 nM, respectively.
`COCCOc1c(O)ccc2c1[C@@]13CCCC[C@H]1[C@@H](C2)N(C)CC3` [Compound 22, 4-(2-methoxyethoxy)-17-methylmorphinan-3-ol]: the IC50 on mu opioid receptor (MOR) and against hMOR was 10 to 100 nM throughout.
Turning to `COc1ccccc1Nc1ccc2c(c1)[C@@]13CCCC[C@H]1[C@@H](C2)N(C)CC3` [Compound 30, N-(2-methoxyphenyl)-17-methylmorphinan-3-amine], the IC50 on mu opioid receptor (MOR) fell in the range of 10 to 100 nM; on NMDA receptor it was 1000 to 10000 nM; against hMOR it was 10 to 100 nM.
Take `COCCOCCOCC(=O)Nc1ccc2c(c1)[C@@]13CCCC[C@H]1[C@@H](C2)N(C)CC3` [Compound 33, 2-[2-(2-methoxyethoxy)ethoxy]-N-(17-methylmorphinan-3-yl)acetamide]: the figures for the IC50 at mu opioid receptor (MOR), on NMDA receptor and against hMOR were 100 to 1000 nM, > 10000 nM and 100 to 1000 nM, respectively.
In the case of `COCCOCCOc1ccc(Nc2ccc3c(c2)[C@@]24CCCC[C@H]2[C@@H](C3)N(C)CC4)cc1` [Compound 36, N-{4-[2-(2-methoxyethoxy)ethoxy]phenyl}-17-methylmorphinan-3-amine], the IC50 on mu opioid receptor (MOR) (setting [2]) lay in the range of 10 to 100 nM; on NMDA receptor, 1000 to 10000 nM; on hMOR (setting [3]), 10 to 100 nM.
Take `CN1CC[C@]23CCCC[C@H]2[C@H]1Cc1ccc(Nc2cccnc2)cc13` [Compound 43, 17-methyl-N-(pyridin-3-yl)morphinan-3-amine]: the half-maximal inhibitory concentration (IC50) at mu opioid receptor (MOR) was in the range of 0.1 to 10 nM; at NMDA receptor it was 0.1 to 100 nM; at hMOR, 0.1 to 10 nM.
Take `CN1CC[C@]23CCCC[C@H]2[C@H]1Cc1ccc(-c2cn[nH]c2)cc13` [Compound 44, 17-methyl-3-(1H-pyrazol-4-yl)morphinan]: the figures for the IC50 on mu opioid receptor (MOR), on NMDA receptor and against hMOR were 10 to 100 nM, 100 to 1000 nM and 10 to 100 nM, respectively.
In the case of `CN1CC[C@]23CCCC[C@H]2[C@H]1Cc1ccc(Nc2nccs2)cc13` [Compound 46, 17-methyl-N-(1,3-thiazol-2-yl)morphinan-3-amine], the IC50 on mu opioid receptor (MOR) fell in the range of 10 to 100 nM; at NMDA receptor, 100 to 1000 nM; against hMOR it was 10 to 100 nM.
In the case of `COCCOCCOCCO[C@@H]1CC[C@H]2[C@H]3Cc4ccc(O)cc4[C@@]2(CCN3C)C1` [Compound 47, (6β)-6-{2-[2-(2-methoxyethoxy)ethoxy]ethoxy}-17-methylmorphinan-3-ol], the 50% inhibitory concentration (IC50) at mu opioid receptor (MOR) and against hMOR was 0.1 to 10 nM in each case.
Turning to `COCCOCCOCCOCCOCCOCC(=O)Nc1nc2cc3c(cc2s1)C[C@@H]1[C@@H]2CCCC[C@]32CCN1C` [Compound 69], the IC50 on mu opioid receptor (MOR) (setting [2]) was 100 to 1000 nM; on NMDA receptor, 1000 to 10000 nM; on hMOR (setting [3]), 100 to 1000 nM.
In the case of `COCCOCCN1CC[C@]23CCCC[C@H]2[C@H]1Cc1ccc(Nc2cccnc2)cc13` [Compound 83, 17-[2-(2-methoxyethoxy)ethyl]-N-(pyridin-3-yl)morphinan-3-amine], the IC50 at mu opioid receptor (MOR) is 100 to 1000 nM; on NMDA receptor, 1000 to 10000 nM. Besides, the “oral efficacy in Phase I and Phase II of the rat formalin paw model” value (“oral efficacy in Phase I and Phase II” for short) in test [1] is given as “statistically significant efficacy”.
`COCCOCCN1CC[C@]23CCCC[C@H]2[C@H]1Cc1ccc(N)cc13` [Compound 96, (4bR,8aR,9R)-11-(2-(2-methoxyethoxy)ethyl)-6,7,8,8a,9,10-hexahydro-5H-9,4b-(epiminoethano)phenanthren-3-amine]: the IC50 on mu opioid receptor (MOR) (setting [2]) was > 1000 nM; on NMDA receptor, > 10000 nM.
For `COCCOCCN1CC[C@]23CCCC[C@H]2[C@H]1Cc1ccc(Nc2ccncc2)cc13` [Compound 98, 17-[2-(2-methoxyethoxy)ethyl]-N-(pyridin-4-yl)morphinan-3-amine], the IC50 at mu opioid receptor (MOR) and on NMDA receptor was 100 to 1000 nM throughout.
Regarding `COCCOCCN1CC[C@]23CCCC[C@H]2[C@H]1Cc1ccc(Nc2ccnnc2)cc13` [Compound 99, (4bR,8aR,9R)-11-(2-(2-methoxyethoxy)ethyl)-N-(pyridazin-4-yl)-6,7,8,8a,9,10-hexahydro-5H-9,4b-(epiminoethano)phenanthren-3-amine], the IC50 on mu opioid receptor (MOR) (setting [2]) is > 1000 nM; on NMDA receptor, 1000 to 10000 nM.
The corresponding values for `COCCOCCN1CC[C@]23CCCC[C@H]2[C@H]1Cc1ccc(-c2cn[nH]c2)cc13` [Compound 100, (4bR,8aR,9R)-11-(2-(2-methoxyethoxy)ethyl)-3-(1H-pyrazol-4-yl)-6,7,8,8a,9,10-hexahydro-5H-9,4b-(epiminoethano)phenanthrene] are > 1000 nM and 1000 to 10000 nM.
As to `CN1CC[C@]23CCCC[C@H]2[C@H]1Cc1cc2ccc(N)nc2cc13` [Compound 101, (4aR,5R,12bR)-15-methyl-2,3,4,4a,5,6-hexahydro-1H-5,12b-(epiminoethano)naphtho[2,1-g]quinolin-10-amine], the IC50 on mu opioid receptor (MOR) (setting [2]) was in the range of 10 to 100 nM; at NMDA receptor it was 1000 to 10000 nM.
In the same order, the values of `CN1CC[C@]23CCCC[C@H]2[C@H]1Cc1cc2ccc(=O)[nH]c2cc13` [Compound 102, (4aR,5R,12bR)-15-methyl-1,2,3,4,4a,5,6,11-octahydro-10H-5,12b-(epiminoethano)naphtho[2,1-g]quinolin-10-one] are > 1000 nM and > 10000 nM.
`CN1CC[C@]23CCCC[C@H]2[C@H]1Cc1cc(C#N)c(N)cc13` [Compound 103, 3-amino-17-methylmorphinan-2-carbonitrile]: the values for the IC50 at mu opioid receptor (MOR) (setting [2]) and on NMDA receptor were > 1000 nM and > 10000 nM, respectively.
Regarding `COCCOCCN1CC[C@]23CCCC[C@H]2[C@H]1Cc1ccc(Nc2cncc(F)c2)cc13` [Compound 104, 17-[2-(2-methoxyethoxy)ethyl]-N-(5-fluoro-pyridin-3-yl)morphinan-3-amine], the figures for the 50% inhibitory concentration (IC50) at mu opioid receptor (MOR) and on NMDA receptor were 10 to 100 nM and > 10000 nM, respectively.
In the same order, the values of `COCCOCCN1CC[C@]23CCCC[C@H]2[C@H]1Cc1ccc(Nc2nccs2)cc13` [Compound 105, N-((4bR,8aR,9R)-11-(2-(2-methoxyethoxy)ethyl)-6,7,8,8a,9,10-hexahydro-5H-9,4b-(epiminoethano)phenanthren-3-yl)thiazol-2-amine] are 100 to 1000 nM and > 10000 nM.
Consider `COCCOCCN1CC[C@]23CCCC[C@H]2[C@H]1Cc1ccc(-c2ccoc2)cc13` [Compound 106, (4bR,8aR,9R)-3-(furan-3-yl)-11-(2-(2-methoxyethoxy)ethyl)-6,7,8,8a,9,10-hexahydro-5H-9,4b-(epiminoethano)phenanthrene], for which the concentration for half-maximal inhibition (IC50) at mu opioid receptor (MOR) is 100 to 1000 nM; at NMDA receptor, > 10000 nM.
In the case of `COCCN1CC[C@]23CCCC[C@H]2[C@H]1Cc1ccc(O)cc13` [Compound 113, 3-hydroxy-17-(2-methoxyethyl)morphinan], the values for the IC50 at mu opioid receptor (MOR), on NMDA receptor and at hMOR were 0.1 to 10 nM, 100 to 1000 nM and 0.1 to 10 nM, respectively. Also, in test [1], the “oral efficacy in Phase I and Phase II” value was “statistically significant efficacy”.
In the case of `CN1CC[C@]23CCCC[C@H]2[C@H]1Cc1ccc(N)cc13` [Compound 114, 3-amino-17-morphinan], the IC50 on mu opioid receptor (MOR), at NMDA receptor and at hMOR was 100 to 1000 nM throughout. In test [1], the “oral efficacy in Phase I and Phase II” value was “statistically significant efficacy”.

(Values after US10766864B2, “Morphinan derivatives for the treatment of neuropathic pain” (Nektar Therapeutics, priority 2015, dated 2020).)
